In patent US20220401457A1, “Use of Deoxycholic Acid, Derivatives, or Salts Thereof in Managing Bacterial Infections and Compositions Related Thereto” (Emory University, priority 2019, published 2022):

Assays:
[1] = system: pneumococcal colonization (Spn); assay: Experiments mimicking pneumococcal colonization of the human airways; type: cell-based, Streptococcus pneumoniae; details: 0.5 mg/ml; colonization otherwise at density of 1×10^7 cfu/mL pneumococci
Protocol: (§1) Streptococcus pneumoniae (Spn) colonizes the upper airways of most children. From the upper airways, Spn migrates to the ear epithelium causing otitis media, a main cause of child disease in the US. Resistance in Spn strains is a serious concern. Bile salts produced in the human liver and secreted into the gut, including sodium deoxycholate. Sodium deoxycholate at a concentration of 10 mg/mL is an injectable treatment to reduce fat under the chin. The antibacterial potency of sodium deoxycholate against Spn was assessed. […] Most tested pneumococcal strains were reference strains provided by the Centers for Disease Control and Prevention (CDC). […] It is contemplated that sodium deoxycholate can be used as a prophylactic agent to eradicate Spn from the upper airways and/or as a therapeutic agent to treat pneumococcal otitis media. To eradicate Spn from the upper airways of healthy children, a strategy using the following routes can be pursued (1) the use of nasal spray to impregnate the upper airways with sodium deoxycholate, or (2) as an additive to a gel or toothpaste. For its therapeutic used in the treatment of otitis media, ototopical antibiotic preparations can be added with sodium deoxycholate to kill antibiotic resistance Spn strains.

[2] = system: Streptococcus pneumoniae (Spn) strains; assay: Antibacterial potency of sodium deoxycholate against cultures of Spn strains; type: cell-based; details: concentration as low as 0.5 mg/ml; within two hours of incubation; numerous different Spn strains including vaccine strains and strains with multiple resistance to antibiotics
Protocol: as §1

Substance: sodium deoxycholate
- time of exposure to eradicate pneumococcal colonization [1]: ≤ 10 min
- killing of cultures of Spn strains [2]: completely killed
